Results taken from paper PMC8151276, “An Integrated Approach toward NanoBRET Tracers for Analysis of GPCR Ligand Engagement” (Molecules, 2021).

Tests used:
Format in all cases: binding
CXCR3 = target: T1, CXCR3 (Homo sapiens, UniProt P49682); assay: NanoBRET screen HiBiT-CXCR3 in HEK293
T1 construct: purchased Promega (in-house HiBiT-GPCR construct library, NanoBRET)
T1 sequence (P49682 1-368): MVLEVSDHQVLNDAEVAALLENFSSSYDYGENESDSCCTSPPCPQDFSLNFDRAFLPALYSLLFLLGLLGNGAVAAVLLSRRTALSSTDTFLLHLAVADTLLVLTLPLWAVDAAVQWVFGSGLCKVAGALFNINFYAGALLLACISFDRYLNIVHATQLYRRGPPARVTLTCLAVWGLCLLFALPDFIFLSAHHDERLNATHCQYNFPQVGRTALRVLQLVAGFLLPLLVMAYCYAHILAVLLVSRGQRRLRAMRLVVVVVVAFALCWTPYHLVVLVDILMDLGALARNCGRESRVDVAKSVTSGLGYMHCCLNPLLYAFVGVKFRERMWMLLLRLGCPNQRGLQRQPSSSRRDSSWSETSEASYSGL
Procedure: (§1) Each tracer candidate was screened across the entire library of HiBiT-GPCR constructs using NanoBRET as the detection modality. As depicted in Figure 4A, the specificity of interactions was evaluated through decrease in BRET due to competitive displacement of a bound tracer by excess parental compound. Each tracer was analyzed for binding to each HiBiT-GPCR fusion in the absence and in the presence of competing parental compound. Briefly, HEK293 cells were transfected with HiBiT-GPCR constructs diluted into promoterless DNA to reduce expression and maximize translocation to the cell surface. Each tracer candidate was then screened at concentrations of 1 μM and 0.1 μM across cells expressing these fusions. Cells were treated for 1.5 h with tracer either alone or in the presence of 20 μM competing parental compound (i.e., control). BRET was measured upon addition of purified LgBiT and subsequent complementation with HiBiT genetically fused to a GPCR. The specificity of interactions was assessed through a decrease in BRET signal due to competitive displacement of the bound tracer. To further gauge the robustness of these interactions, the fold response over the control (i.e., BRETtracer/BRETcontrol) was calculated. We chose a 1.5-fold response, which translates to ≥7-fold signal over noise as the minimal threshold required to score an interaction as positive. […]. Below we highlight the screening results obtained for our exemplary fluorescent tracers based on Clozapine, Amitriptyline and AZD1283.
(§2) HiBiT-GPCR DNA constructs were diluted in 10 mM Tris pH 8 to a final concentration of 0.01 μg/μL, arrayed in 96-well plates and stored at −20 °C. For transfection, HEK293 cells were suspended in Opti-MEM (without phenol red) supplemented with 2% fetal bovine serum (Seradigm) and 100 units/mL penicillin–streptomycin (Gibco) at a final concentration of 220,000 cells/mL and dispensed into white 96-well plates at 90 μL/well. Subsequent transfections and screens were carried using an Agilent Bravo Automated Liquid Handling Platform. First, the 96-well HiBiT DNA arrays were diluted 25-fold in Opti-MEM (without serum or phenol red) to a final concentration of 0.0004 μg/μL and 20 μL of the diluted DNAs were transferred into new 96-well plates. Next, promoterless carrier DNA (1 μg/μL) was diluted 25-fold (0.04 μg/μL) and then dispensed into the diluted arrays at 20 μL/well. Following brief mixing, Viafect transfection reagent (Promega) diluted 16-fold into Opti-MEM was dispensed into the plates at 40 μL/well. After mixing by pipetting, plates were incubated for 10 min on the pipetting station deck. The DNA-transfection reagent complexes were then added to plates containing cells. To facilitate the screen, 10 μL of DNA-transfection reagent complexes were added in duplicates to the top 4 and bottom 4 rows, resulting in two identical 48-well arrays per plate. Plates with transfected cells were incubated for 18–20 h at 37 °C/5% CO2. A screen of each tracer across the entire library using two different concentrations requires duplicate plates of transfected cells. Depending on the number of tracers being screened, transfections can be scaled up using the same ratios. The next day, for each tracer, four 20× screening solutions in tracer dilution buffer (Promega) were prepared: two duplicates at final concentration of 20 μM and two duplicates at a final concentration of 2 μM. A competing unmodified compound was added to one of each duplicate at a final concentration of 400 μM. The four resulting solutions were diluted 4-fold in Opti-MEM without serum or phenol red to generate 5× solutions (5 µM and 0.5 µM tracer +/− 100 μM competing compound). To screen the library, a BioTek MultiFlo FX liquid dispenser was used to dispense 22.5 µL of tracer solution to the top 4 rows and 22.5 µL tracer + competing compound solution to the 4 bottom rows. Plates were briefly mixed on an orbital shaker and incubated for 1.5 h at room temperature. […]

HRH3 = target: T2, HRH3 (Homo sapiens, UniProt Q9Y5N1); assay: NanoBRET screen HiBiT-HRH3 in HEK293
T2 construct: purchased Promega (in-house HiBiT-GPCR construct library, NanoBRET)
Procedure: as §1, §2

C5AR2 = target: T3, C5AR2 (Homo sapiens, UniProt Q9P296); assay: NanoBRET screen HiBiT-C5AR2 in HEK293
T3 construct: purchased Promega (in-house HiBiT-GPCR construct library, NanoBRET)
Procedure: as §1, §2

HCRTR1 = target: T4, HCRTR1 (Homo sapiens, UniProt O43613); assay: NanoBRET screen HiBiT-HCRTR1 in HEK293
T4 construct: purchased Promega (in-house HiBiT-GPCR construct library, NanoBRET)
T4 sequence (O43613 1-425): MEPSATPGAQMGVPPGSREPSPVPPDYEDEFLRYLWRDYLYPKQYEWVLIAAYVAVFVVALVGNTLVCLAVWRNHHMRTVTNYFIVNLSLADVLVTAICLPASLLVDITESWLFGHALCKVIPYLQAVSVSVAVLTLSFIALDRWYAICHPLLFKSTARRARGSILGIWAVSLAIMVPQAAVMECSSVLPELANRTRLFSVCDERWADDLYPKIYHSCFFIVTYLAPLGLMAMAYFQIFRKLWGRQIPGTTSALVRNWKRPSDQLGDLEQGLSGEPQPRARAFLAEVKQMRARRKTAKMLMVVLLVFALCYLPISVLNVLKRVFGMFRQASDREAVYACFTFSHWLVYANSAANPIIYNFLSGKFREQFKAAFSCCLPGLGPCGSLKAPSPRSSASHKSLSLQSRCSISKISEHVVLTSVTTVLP
Procedure: as §1, §2

GRM2 = target: T5, GRM2 (Homo sapiens, UniProt Q14416); assay: NanoBRET screen HiBiT-GRM2 in HEK293
T5 construct: purchased Promega (in-house HiBiT-GPCR construct library, NanoBRET)
Procedure: as §1, §2

T2 sequence (Q9Y5N1 whole entry): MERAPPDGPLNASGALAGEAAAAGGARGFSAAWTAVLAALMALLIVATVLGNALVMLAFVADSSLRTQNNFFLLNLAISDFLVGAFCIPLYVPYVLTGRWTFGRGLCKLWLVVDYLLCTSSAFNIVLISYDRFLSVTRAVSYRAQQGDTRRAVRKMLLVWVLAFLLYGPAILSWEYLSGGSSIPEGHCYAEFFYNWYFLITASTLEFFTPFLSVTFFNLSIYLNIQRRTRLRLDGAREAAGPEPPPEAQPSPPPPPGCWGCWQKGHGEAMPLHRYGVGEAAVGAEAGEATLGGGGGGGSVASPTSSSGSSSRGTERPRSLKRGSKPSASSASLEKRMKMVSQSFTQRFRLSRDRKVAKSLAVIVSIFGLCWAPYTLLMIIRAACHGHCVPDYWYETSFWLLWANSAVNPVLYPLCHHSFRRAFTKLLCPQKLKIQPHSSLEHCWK
T5 sequence (Q14416 19-872): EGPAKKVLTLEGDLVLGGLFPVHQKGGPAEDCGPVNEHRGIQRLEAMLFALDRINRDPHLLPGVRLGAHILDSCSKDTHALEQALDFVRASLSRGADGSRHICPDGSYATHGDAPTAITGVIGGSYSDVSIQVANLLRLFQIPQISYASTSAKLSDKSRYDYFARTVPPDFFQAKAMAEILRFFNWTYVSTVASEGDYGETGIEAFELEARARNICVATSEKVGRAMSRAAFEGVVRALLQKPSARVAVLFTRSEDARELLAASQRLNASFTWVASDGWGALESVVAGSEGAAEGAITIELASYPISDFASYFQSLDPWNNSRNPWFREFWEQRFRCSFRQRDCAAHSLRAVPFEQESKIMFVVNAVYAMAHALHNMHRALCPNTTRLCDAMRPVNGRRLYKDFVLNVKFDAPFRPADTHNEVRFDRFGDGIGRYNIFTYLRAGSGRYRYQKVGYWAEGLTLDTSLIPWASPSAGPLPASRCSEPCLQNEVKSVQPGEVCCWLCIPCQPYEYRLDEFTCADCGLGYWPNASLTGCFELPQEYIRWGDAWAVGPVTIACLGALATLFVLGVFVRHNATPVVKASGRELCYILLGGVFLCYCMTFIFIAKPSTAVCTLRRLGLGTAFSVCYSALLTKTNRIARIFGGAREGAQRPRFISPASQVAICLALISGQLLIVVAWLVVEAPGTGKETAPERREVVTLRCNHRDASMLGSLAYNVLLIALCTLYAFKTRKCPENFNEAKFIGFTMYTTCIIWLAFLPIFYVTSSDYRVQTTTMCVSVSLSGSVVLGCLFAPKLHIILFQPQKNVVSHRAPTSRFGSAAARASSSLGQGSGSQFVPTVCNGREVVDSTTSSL
T3 sequence (Q9P296 whole entry): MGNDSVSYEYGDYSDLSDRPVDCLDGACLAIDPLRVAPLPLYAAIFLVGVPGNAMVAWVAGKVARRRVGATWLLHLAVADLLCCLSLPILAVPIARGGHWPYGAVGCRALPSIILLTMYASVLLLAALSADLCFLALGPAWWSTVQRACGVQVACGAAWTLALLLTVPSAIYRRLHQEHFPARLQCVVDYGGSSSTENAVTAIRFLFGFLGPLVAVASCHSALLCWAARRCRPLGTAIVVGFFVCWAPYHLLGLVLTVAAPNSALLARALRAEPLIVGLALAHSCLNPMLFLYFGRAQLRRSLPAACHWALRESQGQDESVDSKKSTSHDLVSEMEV

Structure (SMILES)	NanoBRET Fold Response (CXCR3; CXCR3, 0.1μM tracer)	NanoBRET Fold Response (CXCR3; CXCR3, 1μM tracer)	NanoBRET Fold Response (HRH3; HRH3, 0.1μM tracer)	NanoBRET Fold Response (HRH3; HRH3, 1μM tracer)	NanoBRET Fold Response (C5AR2; C5AR2, 0.1μM tracer)	NanoBRET Fold Response (C5AR2; C5AR2, 1μM tracer)	NanoBRET Fold Response (HCRTR1; HCRTR1, 0.1μM tracer)	NanoBRET Fold Response (HCRTR1; HCRTR1, 1μM tracer)	NanoBRET Fold Response (GRM2; GRM2, 0.1μM tracer)	NanoBRET Fold Response (GRM2; GRM2, 1μM tracer)	NanoBRET Fold Response (CXCR3; CXCR3, tracer 0.1μM)	NanoBRET Fold Response (CXCR3; CXCR3, tracer 1μM)	NanoBRET Fold Response (HRH3; HRH3, tracer 0.1μM)	NanoBRET Fold Response (HRH3; HRH3, tracer 1μM)	NanoBRET Fold Response (C5AR2; C5AR2, tracer 0.1μM)	NanoBRET Fold Response (C5AR2; C5AR2, tracer 1μM)	NanoBRET Fold Response (HCRTR1; HCRTR1, tracer 0.1μM)	NanoBRET Fold Response (HCRTR1; HCRTR1, tracer 1μM)	NanoBRET Fold Response (GRM2; GRM2, tracer 0.1μM)	NanoBRET Fold Response (GRM2; GRM2, tracer 1μM)	also measured
CN1CCN(C2=Nc3cc(Cl)ccc3N(CC(=O)NCCOCCOCCOCCOCCNC(=O)CCc3ccc4n3[B-](F)(F)[N+]3=C(c5ccc[nH]5)C=CC3=C4)c3ccccc32)CC1 [Clozapine-c-2-NB590]	1.01	0.76	0.98	0.86	0.99	1.00	0.98	1.00	0.97	1.00	–	–	–	–	–	–	–	–	–	–	–
COc1ccc2[nH]c(-c3ccc(CNC(=O)CCOCCOCCOCCOCCNC(=O)CCc4ccc5n4[B-](F)(F)[N+]4=C(c6ccc[nH]6)C=CC4=C5)cc3)c(CCNC(C)=O)c2n1 [AzomelatoninICO9-2-NB590]	–	–	–	–	–	–	–	–	–	–	–	–	–	–	–	–	–	–	–	–	NanoBRET Fold Response (CXCR3; 0.1μM tracer): 0.79; NanoBRET Fold Response (CXCR3; 1μM tracer): 0.91; NanoBRET Fold Response (HRH3; 0.1μM tracer): 1.09; NanoBRET Fold Response (HRH3; 1μM tracer): 1.03; NanoBRET Fold Response (C5AR2; 0.1μM tracer): 1.13; NanoBRET Fold Response (C5AR2; 1μM tracer): 0.89; NanoBRET Fold Response (HCRTR1; 0.1μM tracer): 0.60; NanoBRET Fold Response (HCRTR1; 1μM tracer): 0.95; NanoBRET Fold Response (GRM2; 0.1μM tracer): 1.11; NanoBRET Fold Response (GRM2; 1μM tracer): 0.95
O=C(CCOCCOCCOCCOCCNC(=O)CCc1ccc2n1[B-](F)(F)[N+]1=C(c3ccc[nH]3)C=CC1=C2)NCCCN1CCN(C2=Nc3cc(Cl)ccc3Nc3ccccc32)CC1 [Clozapine-a-2-NB590]	1.02	1.22	0.97	0.91	0.93	1.21	0.89	0.98	1.03	1.01	–	–	–	–	–	–	–	–	–	–	–
CCCn1c(=O)c2[nH]c(-c3ccc(OCC(=O)NCCNC(=O)CCOCCNC(=O)c4ccc(CNC(=O)CCc5ccc6n5[B-](F)(F)[N+]5=C(c7ccc[nH]7)C=CC5=C6)cc4)cc3)nc2n(CCC)c1=O [XAC-3-NB590]	–	–	–	–	–	–	–	–	–	–	0.93	1.60	0.81	1.33	1.02	1.01	0.91	0.88	1.01	1.03	–
O=C(CCc1ccc2n1[B-](F)(F)[N+]1=C(c3ccc[nH]3)C=CC1=C2)NCc1ccc(C(=O)NCCOCCOCCNCC(O)COc2cccc3ccccc23)cc1 (stereo not shown) [Propranolol-3-NB590]	–	–	–	–	–	–	–	–	–	–	–	–	–	–	–	–	–	–	–	–	NanoBRET Fold Response (CXCR3; CXCR3, 0.1μM): 0.99; NanoBRET Fold Response (CXCR3; CXCR3, 1μM): 0.90; NanoBRET Fold Response (HRH3; HRH3, 0.1μM): 0.97; NanoBRET Fold Response (HRH3; HRH3, 1μM): 1.00; NanoBRET Fold Response (C5AR2; C5AR2, 0.1μM): 1.00; NanoBRET Fold Response (C5AR2; C5AR2, 1μM): 1.01; NanoBRET Fold Response (HCRTR1; HCRTR1, 0.1μM): 1.01; NanoBRET Fold Response (HCRTR1; HCRTR1, 1μM): 0.94; NanoBRET Fold Response (GRM2; GRM2, 0.1μM): 0.94; NanoBRET Fold Response (GRM2; GRM2, 1μM): 1.05
O=C(CCc1ccc2n1[B-](F)(F)[N+]1=C(c3ccc[nH]3)C=CC1=C2)NCc1ccc(C(=O)NCCOCCC(=O)N[C@@H]2CC[C@@]3(O)[C@H]4Cc5ccc(O)c6c5[C@@]3(CCN4CC3CC3)[C@H]2O6)cc1 [Naltrexone-3-NB590]	–	–	–	–	–	–	–	–	–	–	1.39	0.78	0.76	0.77	0.95	1.01	0.98	0.88	0.92	0.98	–
N#CN=C(NCCCOc1cccc(CN2CCCCC2)c1)NCCNC(=O)CCOCCOCCOCCOCCNC(=O)CCc1ccc2n1[B-](F)(F)[N+]1=C(c3ccc[nH]3)C=CC1=C2 [Aminopotentidine-2-NB590]	–	–	–	–	–	–	–	–	–	–	1.33	1.05	2.54	2.06	1.06	1.03	0.98	0.95	1.05	0.99	–
COc1ccc2c(n1)c(CCNC(C)=O)cn2CCNC(=O)CCc1ccc2n1[B-](F)(F)[N+]1=C(c3ccc[nH]3)C=CC1=C2 [Azamelatonin-1-NB590]	–	–	–	–	–	–	–	–	–	–	–	–	–	–	–	–	–	–	–	–	NanoBRET Fold Response (CXCR3; 0.1μM tracer): 1.19; NanoBRET Fold Response (CXCR3; 1μM tracer): 0.93; NanoBRET Fold Response (HRH3; 0.1μM tracer): 1.07; NanoBRET Fold Response (HRH3; 1μM tracer): 1.07; NanoBRET Fold Response (C5AR2; 0.1μM tracer): 0.90; NanoBRET Fold Response (C5AR2; 1μM tracer): 0.93; NanoBRET Fold Response (HCRTR1; 0.1μM tracer): 0.93; NanoBRET Fold Response (HCRTR1; 1μM tracer): 0.84; NanoBRET Fold Response (GRM2; 0.1μM tracer): 1.19; NanoBRET Fold Response (GRM2; 1μM tracer): 1.00
CC(C)N(CC[C@H](c1ccccc1)c1cc(CCNC(=O)c2ccc(CNC(=O)CCc3ccc4n3[B-](F)(F)[N+]3=C(c5ccc[nH]5)C=CC3=C4)cc2)ccc1O)C(C)C [Tolterodine-BZ-NB590]	–	–	–	–	–	–	–	–	–	–	1.11	0.96	1.16	1.28	1.05	1.08	0.86	1.07	1.00	0.15	–
CN1CCN(C2=Nc3cc(Cl)ccc3Nc3ccc(CNC(=O)CCOCCOCCOCCOCCNC(=O)CCc4ccc5n4[B-](F)(F)[N+]4=C(c6ccc[nH]6)C=CC4=C5)cc32)CC1 [Clozapine-b-2-NB590]	0.97	0.94	0.98	1.06	0.99	1.01	1.04	1.01	1.01	1.04	–	–	–	–	–	–	–	–	–	–	–
